Laboratory results as given in ChEMBL document CHEMBL1201862, “PubChem BioAssay data set” (2004).
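These data come from cells grown in 96-well plates and exposed to compound for 48 hours at five concentrations. At the GI50, growth is halved.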 Active and inactive are the calls of the source. No stated cut-off is given here; in the data, active = GI50 up to about 1.1 µM and inactive = higher.

Tests used:
Assay in all cases: inhibition of tumour cell growth, NCI panel, 48 h
A549 = system: A549
ACHN = system: ACHN
HCC 2998 = system: HCC 2998
IGROV-1 = system: IGROV-1
KM12 = system: KM12
M14 = system: M14
Malme-3M = system: Malme-3M
NCI-H226 = system: NCI-H226
OVCAR-4 = system: OVCAR-4
SF-295 = system: SF-295
SK-MEL-5 = system: SK-MEL-5
SNB-19 = system: SNB-19
SW-620 = system: SW-620
UACC-257 = system: UACC-257
UO-31 = system: UO-31
SK-MEL-28 = system: SK-MEL-28
SR = system: SR

Measured: GI50

CC12O[C@H](c3ccccc3)[C@H](c3ccccc3)N1C(=O)C1(C(=O)OCc3ccccc3)CC12 (stereo partly drawn)
inactive: A549 22.3 µM | ACHN 60.3 µM | HCC 2998 > 100 µM | IGROV-1 > 100 µM | KM12 91 µM | M14 64.7 µM | Malme-3M > 100 µM | NCI-H226 36 µM | OVCAR-4 79.1 µM | SF-295 > 100 µM | SK-MEL-5 88.7 µM | SNB-19 > 100 µM | SW-620 > 100 µM | UACC-257 59.8 µM | UO-31 41.2 µM

CC(C)COC1Sc2ccccc2S1
inactive: A549 20.5 µM | ACHN 15.7 µM | HCC 2998 28.7 µM | IGROV-1 5.35 µM | M14 20.6 µM | Malme-3M 23.6 µM | OVCAR-4 23.1 µM | SF-295 16.4 µM | SK-MEL-28 17.4 µM | SNB-19 18.1 µM | SW-620 29.7 µM | UO-31 15.5 µM

CC1(C)OC2CC3COC(=O)C3CC2O1 (stereo not drawn)
inactive: A549 > 100 µM | ACHN > 100 µM | HCC 2998 > 100 µM | IGROV-1 > 100 µM | KM12 > 100 µM | M14 > 100 µM | Malme-3M > 100 µM | NCI-H226 > 100 µM | OVCAR-4 > 100 µM | SF-295 > 100 µM | SK-MEL-28 > 100 µM | SK-MEL-5 > 100 µM | SR > 100 µM | SW-620 > 100 µM | UACC-257 > 100 µM | UO-31 > 100 µM

Cc1cc(O)cc2oc(=O)c3c(O)cc(O)cc3c12 [ALTERNARIOL]
inactive: A549 16.1 µM | ACHN 14.1 µM | HCC 2998 18.5 µM | IGROV-1 19.7 µM | KM12 26.8 µM | M14 60 µM | Malme-3M 40.3 µM | NCI-H226 19.5 µM | OVCAR-4 65.3 µM | SF-295 26.3 µM | SK-MEL-28 > 100 µM | SK-MEL-5 18.5 µM | SNB-19 20 µM | SR 3.69 µM | SW-620 16.2 µM | UACC-257 > 100 µM | UO-31 34.6 µM

CCCCCCCCCCCCCCCCNCC(O)CN (stereo not drawn)
inactive: A549 3.44 µM | HCC 2998 2.39 µM | IGROV-1 5.19 µM | KM12 1.75 µM | Malme-3M 16.2 µM | NCI-H226 8.89 µM | OVCAR-4 3.48 µM | SF-295 2.64 µM | SK-MEL-28 13.1 µM | SK-MEL-5 11.7 µM | SNB-19 19.5 µM | SW-620 1.79 µM | UACC-257 9.89 µM | UO-31 7.73 µM

COC(=O)C1C(O)C(C)C(O)OC1C(C)C(O)C(C)/C=C\C=C(/C)C(=O)Nc1c(C)c(OC(C)=O)c2c(c1O)C(=O)C(C)=C1OCOC(/C(C)=C/C(C)=O)=C12 (stereo not drawn)
inactive: A549 15.1 µM | HCC 2998 13.9 µM | IGROV-1 12.6 µM | KM12 14 µM | Malme-3M 13.5 µM | NCI-H226 12.4 µM | OVCAR-4 12.1 µM | SF-295 14.9 µM | SK-MEL-28 2.99 µM | SK-MEL-5 12.8 µM | SNB-19 15.1 µM | SW-620 9.53 µM | UACC-257 12.5 µM | UO-31 16.4 µM

COc1cc2nc(NCCCCCNC(=O)c3ccco3)nc(N)c2cc1OC
inactive: A549 74.8 µM | ACHN 52.5 µM | HCC 2998 19.4 µM | IGROV-1 41.1 µM | KM12 24 µM | M14 18.5 µM | Malme-3M 17.4 µM | NCI-H226 32.7 µM | OVCAR-4 29.3 µM | SF-295 37.2 µM | SK-MEL-28 19.2 µM | SK-MEL-5 19.2 µM | SNB-19 38.2 µM | SW-620 22.5 µM | UACC-257 19.5 µM | UO-31 > 100 µM

O=[N+]([O-])c1ccccc1/C=N/C12CC3CC(CC(C3)C1)C2
inactive: A549 > 100 µM | ACHN > 100 µM | HCC 2998 38.1 µM | IGROV-1 > 100 µM | KM12 37.3 µM | M14 56.1 µM | Malme-3M 66.1 µM | NCI-H226 > 100 µM | OVCAR-4 87.7 µM | SF-295 > 100 µM | SK-MEL-28 > 100 µM | SK-MEL-5 61.4 µM | SNB-19 49.9 µM | SW-620 46.6 µM | UACC-257 > 100 µM | UO-31 > 100 µM

N#C/C(=C\c1ccc(O)c(O)c1)c1c(C#N)c(N)nn1-c1ccccc1
inactive: A549 10.1 µM | ACHN 8 µM | HCC 2998 9.66 µM | IGROV-1 4.17 µM | KM12 15.6 µM | M14 9.29 µM | Malme-3M 4.95 µM | OVCAR-4 17.2 µM | SF-295 15.7 µM | SK-MEL-28 20 µM | SK-MEL-5 6.58 µM | SNB-19 7.19 µM | SW-620 12.8 µM | UACC-257 15.5 µM | UO-31 6.47 µM

CC[C@@]1(O)C[C@H](OC2CC(N(C)C)C(O)C(C)O2)c2c(cc3c(c2O)C(=O)c2c(O)ccc(O)c2C3=O)[C@H]1C(=O)OC (stereo partly drawn)
active: A549 0.0365 µM | HCC 2998 0.162 µM | IGROV-1 0.0468 µM | KM12 0.0635 µM | Malme-3M 0.0807 µM | NCI-H226 0.108 µM | OVCAR-4 0.029 µM | SF-295 0.032 µM | SK-MEL-28 0.148 µM | SK-MEL-5 0.0938 µM | SNB-19 0.0991 µM | SW-620 0.0267 µM | UACC-257 0.0863 µM | UO-31 0.158 µM

C=C(Br)C(C)(Cl)CCC(Br)C(C)(C)Br (stereo not drawn)
inactive: A549 40.9 µM | ACHN > 100 µM | IGROV-1 > 100 µM | KM12 99.1 µM | M14 50.4 µM | Malme-3M 69 µM | NCI-H226 > 100 µM | OVCAR-4 > 100 µM | SF-295 47.2 µM | SK-MEL-5 65.3 µM | SR 22.1 µM | SW-620 79.8 µM | UACC-257 78.7 µM | UO-31 84.3 µM

COc1cc(C(C)O)c[n+](CCC2CNc3ccccc32)c1 (stereo not drawn)
inactive: A549 > 100 µM | ACHN > 100 µM | HCC 2998 > 100 µM | IGROV-1 > 100 µM | KM12 > 100 µM | M14 > 100 µM | Malme-3M > 100 µM | NCI-H226 73.1 µM | OVCAR-4 > 100 µM | SF-295 > 100 µM | SK-MEL-5 > 100 µM | SNB-19 > 100 µM | SR > 100 µM | SW-620 > 100 µM | UACC-257 > 100 µM | UO-31 > 100 µM

CCOC(=O)[C@H]1Nc2ccc(Cl)cc2[C@H]2c3ccccc3O[C@H]21
inactive: A549 79.4 µM | ACHN > 100 µM | HCC 2998 > 100 µM | IGROV-1 > 100 µM | KM12 93.5 µM | M14 41.2 µM | NCI-H226 > 100 µM | OVCAR-4 54.1 µM | SF-295 72.1 µM | SK-MEL-28 35.2 µM | SK-MEL-5 64.7 µM | SNB-19 > 100 µM | SR 94.8 µM | SW-620 > 100 µM | UACC-257 36.1 µM | UO-31 > 100 µM

CCOC(=N)/C(=C1\OC(=N)C(c2ccc(Cl)cc2)=C1O)c1ccc(Cl)cc1
inactive: A549 23.4 µM | ACHN 21.3 µM | HCC 2998 18.1 µM | IGROV-1 28.9 µM | KM12 18.4 µM | M14 17.4 µM | Malme-3M 14.3 µM | NCI-H226 20.5 µM | OVCAR-4 11.8 µM | SF-295 25.3 µM | SK-MEL-28 16 µM | SNB-19 22.7 µM | SR 16.7 µM | SW-620 17.6 µM | UACC-257 17.2 µM | UO-31 17.5 µM

Nc1ncnc2c1ncn2[C@]1(CO)C=C(CO)C(O)C1O (stereo partly drawn)
inactive: A549 > 100 µM | ACHN > 100 µM | HCC 2998 > 100 µM | KM12 > 100 µM | M14 > 100 µM | Malme-3M > 100 µM | NCI-H226 > 100 µM | OVCAR-4 > 100 µM | SF-295 > 100 µM | SK-MEL-28 > 100 µM | SK-MEL-5 > 100 µM | SNB-19 > 100 µM | SR > 100 µM | SW-620 > 100 µM | UACC-257 > 100 µM

O=C(Nc1c(O)[nH]c(=S)[nH]c1=O)c1ccco1
inactive: A549 > 100 µM | ACHN > 100 µM | IGROV-1 > 100 µM | KM12 > 100 µM | M14 > 100 µM | Malme-3M > 100 µM | NCI-H226 > 100 µM | OVCAR-4 > 100 µM | SF-295 > 100 µM | SK-MEL-28 > 100 µM | SK-MEL-5 > 100 µM | SNB-19 > 100 µM | SR > 100 µM | SW-620 > 100 µM | UACC-257 > 100 µM | UO-31 > 100 µM

O=C(N/C(=C\c1ccc(/C=C(\NC(=O)c2ccccc2)c2nc3c(O)nc(S)nc3[nH]2)cc1)c1nc2c(O)nc(S)nc2[nH]1)c1ccccc1
inactive: A549 > 100 µM | ACHN 95.7 µM | HCC 2998 > 100 µM | IGROV-1 > 100 µM | KM12 > 100 µM | M14 > 100 µM | Malme-3M > 100 µM | OVCAR-4 25.9 µM | SF-295 > 100 µM | SK-MEL-28 29.3 µM | SK-MEL-5 64.4 µM | SNB-19 > 100 µM | SW-620 46.6 µM | UACC-257 > 100 µM | UO-31 > 100 µM

Cc1ccc(S(=O)(=O)OCC23CCC(C2)C2CC23)cc1 (stereo not drawn)
inactive: A549 > 100 µM | ACHN > 100 µM | HCC 2998 > 100 µM | IGROV-1 > 100 µM | M14 > 100 µM | Malme-3M > 100 µM | NCI-H226 > 100 µM | OVCAR-4 > 100 µM | SF-295 > 100 µM | SK-MEL-28 > 100 µM | SK-MEL-5 > 100 µM | SNB-19 > 100 µM | SR > 100 µM | SW-620 > 100 µM | UACC-257 52.1 µM | UO-31 > 100 µM
